According to US20230278972A1, “SUBSTITUTED HALOALKYL SULFONANILIDE HERBICIDES” (FMC Corporation, priority 2020, published 2023):

Experiments:
Format in all cases: in vivo
[1] = system: galium (catchweed bedstraw, Galium aparine); assay: Test A postemergence, galium; conditions: Postemergence; for Galium plant response rating: 500 g ai/ha, visual injury vs untreated controls after approx. 10 days
In short: (§1)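 Directed soil spray at planting gave the preemergence treatment, while foliar application to one- to two-leaf seedlings (2–10 cm) gave the postemergence one; pots held a loam and sand mixture and chemicals were carried in a non-phytotoxic solvent with surfactant.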

[2] = system: ragweed (common ragweed, Ambrosia artemisiifolia); assay: Test A preemergence, ragweed; conditions: Preemergence; for Ragweed plant response rating: visual injury on 0 to 100 scale (0 no effect, 100 complete control), approximately 10 days; for Plant response rating, Ragweed: 0 to 100 scale (0 no effect, 100 complete control)
In short: (§2)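 Pots: loam soil/sand blend. Pre: directed soil spray at planting. Post: plants 2–10 cm, 1–2 leaf stage. Formulation: non-phytotoxic solvent + surfactant.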

kochia (Bassia scoparia) [3] = assay: Test A preemergence, kochia; conditions: Preemergence; for Kochia plant response rating: visual injury on 0 to 100 scale (0 no effect, 100 complete control), approximately 10 days; for Plant response rating, Kochia: 0 to 100 scale (0 no effect, 100 complete control)
In short: as §2

[4] = system: blackgrass (Alopecurus myosuroides); assay: Test A postemergence, blackgrass; conditions: Postemergence, 0 to 100 scale (0 no effect, 100 complete control); for Blackgrass plant response rating: 500 g ai/ha, visual injury vs untreated controls after approx. 10 days
In short: as §2

corn (Zea mays) = assay: Test A postemergence, corn; conditions: Postemergence; for Corn plant response rating: 500 g ai/ha, visual injury vs untreated controls after approx. 10 days
In short: as §2

[5] = system: Foxtail, Giant (giant foxtail, Setaria faberi); assay: Test A postemergence, Foxtail, Giant; conditions: Postemergence; for Foxtail, Giant plant response rating: 500 g ai/ha, visual injury vs untreated controls after approx. 10 days
In short: as §2

[6] = system: ragweed (common ragweed, Ambrosia artemisiifolia); assay: Test A postemergence, ragweed; conditions: Postemergence; for Ragweed plant response rating: 500 g ai/ha, visual injury vs untreated controls after approx. 10 days
In short: as §2

[7] = system: barnyardgrass (Echinochloa crus-galli); assay: Test A preemergence, barnyardgrass; conditions: Preemergence; for Barnyardgrass plant response rating: visual injury on 0 to 100 scale (0 no effect, 100 complete control), approximately 10 days; for Plant response rating, Barnyardgrass: 0 to 100 scale (0 no effect, 100 complete control)
In short: as §2

[8] = system: Ryegrass, Italian (Italian ryegrass, Lolium multiflorum); assay: Test A postemergence, Ryegrass, Italian; conditions: Postemergence; for Ryegrass, Italian plant response rating: 500 g ai/ha, visual injury vs untreated controls after approx. 10 days
In short: as §2

[9] = system: pigweed (Amaranthus retroflexus); assay: Test A preemergence, pigweed; conditions: for Pigweed plant response rating: visual injury on 0 to 100 scale (0 no effect, 100 complete control), approximately 10 days; for Plant response rating, Pigweed: 0 to 100 scale (0 no effect, 100 complete control)
In short: as §1

[10] = system: pigweed (Amaranthus retroflexus); assay: Test A postemergence, pigweed; conditions: Postemergence; for Pigweed plant response rating: 500 g ai/ha, visual injury vs untreated controls after approx. 10 days
In short: as §2

[11] = system: Foxtail, Giant (giant foxtail, Setaria faberi); assay: Test A preemergence, Foxtail, Giant; conditions: Preemergence; for Foxtail, Giant plant response rating: visual injury on 0 to 100 scale (0 no effect, 100 complete control), approximately 10 days; for Plant response rating, Foxtail, Giant: 0 to 100 scale (0 no effect, 100 complete control)
In short: as §2

[12] = system: wheat (Triticum aestivum); assay: Test A postemergence, wheat; conditions: Postemergence; for Wheat plant response rating: 500 g ai/ha, visual injury vs untreated controls after approx. 10 days
In short: as §1

[13] = system: barnyardgrass (Echinochloa crus-galli); assay: Test A postemergence, barnyardgrass; conditions: Postemergence, 0 to 100 scale (0 no effect, 100 complete control); for Barnyardgrass plant response rating: 500 g ai/ha, visual injury vs untreated controls after approx. 10 days
In short: as §1

kochia (Bassia scoparia) [14] = assay: Test A postemergence, kochia; conditions: Postemergence; for Kochia plant response rating: 500 g ai/ha, visual injury vs untreated controls after approx. 10 days
In short: as §2

[15] = system: Ryegrass, Italian (Italian ryegrass, Lolium multiflorum); assay: Test A preemergence, Ryegrass, Italian; conditions: Preemergence; for Ryegrass, Italian plant response rating: visual injury on 0 to 100 scale (0 no effect, 100 complete control), approximately 10 days; for Plant response rating, Ryegrass, Italian: 0 to 100 scale (0 no effect, 100 complete control)
In short: as §2

[16] = 125 g ai/ha, 0 to 100 scale (0 no effect, 100 complete control)
[17] = 0 to 100 scale (0 no effect, 100 complete control)
[18] = 125 g ai/ha, visual injury, approx. 10 days
[19] = 31 g ai/ha, visual injury on 0 to 100 scale (0 no effect, 100 complete control), approx. 10 days
[20] = 31 g ai/ha, visual injury, approx. 10 days

Structure (SMILES)	Plant response rating, Galium [1, 16]	Galium plant response rating [1, 17]	Ragweed plant response rating ([2]; 125 g ai/ha)	Kochia plant response rating (kochia (Bassia scoparia) [3]; 125 g ai/ha)	Plant response rating, Blackgrass ([4]; 125 g ai/ha)	Blackgrass plant response rating [4]	Plant response rating, Corn (corn (Zea mays); [16])	Corn plant response rating (corn (Zea mays); [17])	Plant response rating, Foxtail, Giant [5, 16]	Foxtail, Giant plant response rating [5, 17]	Plant response rating, Ragweed [6, 16]	Ragweed plant response rating [6, 17]	Barnyardgrass plant response rating ([7]; 125 g ai/ha)	Plant response rating, Barnyardgrass ([7]; 500 g ai/ha)	Plant response rating, Ryegrass, Italian [8, 16]	Ryegrass, Italian plant response rating [8, 17]	Plant response rating, Pigweed [10, 16]	Plant response rating, Wheat [12, 16]	Plant response rating, Barnyardgrass ([13]; 125 g ai/ha)	Plant response rating, Kochia (kochia (Bassia scoparia) [14]; [16])	other results
Cc1cc(C)c(N(S(=O)(=O)C(F)(F)F)S(=O)(=O)C(F)(F)F)cc1C1=NOC2(CCCCCC2)C1 [Compound 158]	70	90	30	70	20	0	0	20	0	20	10	20	30	100	0	0	30	0	0	20	Plant response rating, Ragweed ([2]; 500 g ai/ha): 40; Plant response rating, Kochia (kochia (Bassia scoparia) [3]; 500 g ai/ha): 80; Pigweed plant response rating ([9]; 125 g ai/ha): 50; Plant response rating, Pigweed ([9]; 500 g ai/ha): 100; Pigweed plant response rating [10, 17]: 80; Foxtail, Giant plant response rating ([11]; 125 g ai/ha): 90; Plant response rating, Foxtail, Giant ([11]; 500 g ai/ha): 100; Wheat plant response rating [12, 17]: 0; Barnyardgrass plant response rating [13]: 20; Kochia plant response rating (kochia (Bassia scoparia) [14]; [17]): 30; Ryegrass, Italian plant response rating ([15]; 125 g ai/ha): 30; Plant response rating, Ryegrass, Italian ([15]; 500 g ai/ha): 100
Cc1cc(Cl)c(C2=NOC(C)(C)C2)cc1N(S(=O)(=O)C(F)(F)F)S(=O)(=O)C(F)(F)F [Compound 184]	80	90	80	0	0	20	0	0	0	0	40	70	70	100	0	0	20	0	20	0	Plant response rating, Ragweed ([2]; 500 g ai/ha): 90; Plant response rating, Kochia (kochia (Bassia scoparia) [3]; 500 g ai/ha): 0; Pigweed plant response rating ([9]; 125 g ai/ha): 70; Plant response rating, Pigweed ([9]; 500 g ai/ha): 100; Pigweed plant response rating [10, 17]: 40; Foxtail, Giant plant response rating ([11]; 125 g ai/ha): 30; Plant response rating, Foxtail, Giant ([11]; 500 g ai/ha): 90; Wheat plant response rating [12, 17]: 0; Barnyardgrass plant response rating [13]: 50; Kochia plant response rating (kochia (Bassia scoparia) [14]; [17]): 30; Ryegrass, Italian plant response rating ([15]; 125 g ai/ha): 30; Plant response rating, Ryegrass, Italian ([15]; 500 g ai/ha): 50
Cc1cc(F)c(C(=O)N2CCOCC2)cc1N(S(=O)(=O)C(F)(F)F)S(=O)(=O)C(F)(F)F [Compound 237]	0	50	–	–	0	0	0	20	20	40	50	80	–	30	40	40	30	0	20	70	Plant response rating, Ragweed [2, 18]: 30; Ragweed plant response rating ([2]; 500 g ai/ha): 80; Plant response rating, Kochia (kochia (Bassia scoparia) [3]; [18]): 90; Kochia plant response rating (kochia (Bassia scoparia) [3]; 500 g ai/ha): 90; Plant response rating, Barnyardgrass [7, 18]: 40; Plant response rating, Pigweed [9, 18]: 80; Pigweed plant response rating ([9]; 500 g ai/ha): 100; Pigweed plant response rating [10, 17]: 60; Plant response rating, Foxtail, Giant [11, 18]: 20; Foxtail, Giant plant response rating ([11]; 500 g ai/ha): 40; Wheat plant response rating [12, 17]: 0; Barnyardgrass plant response rating [13]: 40; Kochia plant response rating (kochia (Bassia scoparia) [14]; [17]): 90; Plant response rating, Ryegrass, Italian [15, 18]: 20; Ryegrass, Italian plant response rating ([15]; 500 g ai/ha): 50
Cc1cc(C)c(N(COC(=O)C2CCCC2)S(=O)(=O)C(F)(F)F)cc1C1=NOC2(CCCC2)C1 [Compound 150]	60	–	0	0	0	–	0	–	20	–	0	–	90	–	0	–	40	60	50	10	Plant response rating, Galium [1, 19]: 40; Plant response rating, Ragweed [2, 20]: 0; Plant response rating, Kochia (kochia (Bassia scoparia) [3]; [20]): 0; Plant response rating, Blackgrass ([4]; 31 g ai/ha): 0; Plant response rating, Corn (corn (Zea mays); [19]): 0; Plant response rating, Foxtail, Giant [5, 19]: 0; Plant response rating, Ragweed [6, 19]: 0; Plant response rating, Barnyardgrass [7, 20]: 0; Plant response rating, Ryegrass, Italian [8, 19]: 0; Plant response rating, Pigweed [9, 20]: 40; Pigweed plant response rating ([9]; 125 g ai/ha): 100; Plant response rating, Pigweed [10, 19]: 20; Plant response rating, Foxtail, Giant [11, 20]: 20; Foxtail, Giant plant response rating ([11]; 125 g ai/ha): 100; Plant response rating, Wheat [12, 19]: 0; Plant response rating, Barnyardgrass ([13]; 31 g ai/ha): 0; Plant response rating, Kochia (kochia (Bassia scoparia) [14]; [19]): 10; Plant response rating, Ryegrass, Italian [15, 20]: 40; Ryegrass, Italian plant response rating ([15]; 125 g ai/ha): 90
